Activity calls are given as the source filed them. The calls are words filed in the database; no cut-off is given here.

Series [1] has as its system J774.A1. The experiment in a line: Inhibition of NLRP3 inflammasome activation in mouse J774.A1 cells assessed as cleavage of pro-caspase 1 to p20 measured at 5 to 20 microM after […] by Western blot analysis. The class given is functional, cell-based. The conditions noted are these: dose 5-20 µM, DDE = dose-dependent effect. (Immunoblotting shows a protein as a band on a membrane.)

Series [2] can be described thus: AUC(0 to infinity) in CD-1 mouse at 20 mg/kg, po measured after 0.083 to 24 hrs by LC-MS/MS analysis. The class given is ADME, organism-based. Further details: dose 20 mg/kg, time 0.083-24 hrs, route po. The conditions noted are these: in vivo.
Series [3] is described as follows: AUC(0 to infinity) in CD-1 mouse at 5 mg/kg, iv measured after 0.083 to 24 hrs by LC-MS/MS analysis. The class given is ADME, organism-based. Further details: dose 5 mg/kg, time upper 24 hrs, time lower 0.083 hrs, route iv. The conditions noted are these: in vivo.
The nature of series [4]: Cmax in CD-1 mouse at 20 mg/kg, po measured after 0.083 to 24 hrs by LC-MS/MS analysis. The class given is ADME, organism-based. Set-up: time 0.083-24 hrs, dose 20 mg/kg, route po. The conditions noted are these: in vivo.
A short description of series [5]: Half life in CD-1 mouse at 20 mg/kg, po measured after 0.083 to 24 hrs by LC-MS/MS analysis. The class given is ADME, organism-based. The conditions noted are these: in vivo, time 0.083-24 hrs.
In another series the test system is L02. The experiment in a line: Cytotoxicity against human HL7702 cells assessed as reduction in cell viability at 100 uM measured after 48 hrs by spectrophotometric analysis. The settings on record: l02, 48 h. The series is classed as toxicity, cell-based.
The nature of series [6]: Plasma concentration in CD-1 mouse at 20 mg/kg measured after 0.5 hrs by LC-MS/MS analysis. The class given is ADME, organism-based.
Series [7] can be described thus: Half life in CD-1 mouse at 5 mg/kg, iv measured after 0.083 to 24 hrs by LC-MS/MS analysis. The class given is ADME, organism-based. The settings on record: in vivo, time 0.083-24 hrs.
The target of series [8] is T1, Protein deacetylase HDAC6 (Homo sapiens, UniProt Q9UBN7).
T1 sequence (Q9UBN7 whole entry): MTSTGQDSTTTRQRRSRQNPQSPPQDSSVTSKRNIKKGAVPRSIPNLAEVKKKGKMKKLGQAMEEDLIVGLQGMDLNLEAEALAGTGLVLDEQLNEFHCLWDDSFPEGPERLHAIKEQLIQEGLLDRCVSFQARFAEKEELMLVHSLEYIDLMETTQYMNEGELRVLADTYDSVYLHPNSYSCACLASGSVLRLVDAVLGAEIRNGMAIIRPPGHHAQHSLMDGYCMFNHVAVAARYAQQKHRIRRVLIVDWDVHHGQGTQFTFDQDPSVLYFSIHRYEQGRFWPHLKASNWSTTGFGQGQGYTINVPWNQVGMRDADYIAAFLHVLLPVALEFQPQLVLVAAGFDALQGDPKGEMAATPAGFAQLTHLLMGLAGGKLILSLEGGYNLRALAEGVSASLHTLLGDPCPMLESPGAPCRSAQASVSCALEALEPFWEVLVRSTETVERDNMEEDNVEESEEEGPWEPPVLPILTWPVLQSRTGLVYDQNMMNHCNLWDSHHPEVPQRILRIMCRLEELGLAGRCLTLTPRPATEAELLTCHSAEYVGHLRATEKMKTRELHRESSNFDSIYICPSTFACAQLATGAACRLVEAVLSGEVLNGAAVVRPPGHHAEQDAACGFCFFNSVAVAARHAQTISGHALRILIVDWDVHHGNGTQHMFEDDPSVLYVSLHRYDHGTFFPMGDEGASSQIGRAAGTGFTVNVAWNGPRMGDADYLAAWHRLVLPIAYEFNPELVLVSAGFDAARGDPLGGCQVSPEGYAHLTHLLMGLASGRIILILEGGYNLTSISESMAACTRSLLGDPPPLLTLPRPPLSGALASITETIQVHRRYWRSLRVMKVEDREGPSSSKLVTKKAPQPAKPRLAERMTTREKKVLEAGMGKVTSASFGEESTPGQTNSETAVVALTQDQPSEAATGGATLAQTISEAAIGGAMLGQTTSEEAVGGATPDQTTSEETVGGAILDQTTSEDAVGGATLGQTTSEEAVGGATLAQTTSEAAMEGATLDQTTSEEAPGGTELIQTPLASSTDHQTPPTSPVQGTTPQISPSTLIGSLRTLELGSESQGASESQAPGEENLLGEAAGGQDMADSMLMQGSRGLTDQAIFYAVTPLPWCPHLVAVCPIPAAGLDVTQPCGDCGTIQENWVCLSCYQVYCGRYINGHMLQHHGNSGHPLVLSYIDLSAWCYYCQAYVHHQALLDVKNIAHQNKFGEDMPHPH
The experiment in a line: Inhibition of recombinant HDAC6 (unknown origin) using Boc-Lys(acetyl)-AMC as substrate preincubated for 120 mins followed by substrate addition and measured after 2 hrs by fluorescence based microplate reader analysis.

Series [9] can be described thus: Ratio of drug concentration in brain to plasma of CD-1 mouse measured after 0.5 hrs by LC-MS/MS analysis. The class given is ADME. The conditions noted are these: read-out: BPR.
For series [10], the target named is T1, Protein deacetylase HDAC6. The series is described as follows: Inhibition of recombinant HDAC6 (unknown origin) using Boc-Lys(acetyl)-AMC as substrate preincubated for 30 mins followed by substrate addition and measured after 2 hrs by fluorescence based microplate reader analysis.
Series [11] deals with T2, Protein deacetylase HDAC6 (Homo sapiens) (UniProt Q9UBN7).
T2 sequence (whole entry): T1 sequence (Q9UBN7 whole entry)
The experiment in a line: Inhibition of HDAC6 in human MV4-11 cells assessed as decrease in hyper acetylation of histone alpha tubulin preincubated for 6 hrs followed by compound washout measured after 1 hr by western blot analysis. The series is classed as cell-based.

For series [12], the target named is T1, Protein deacetylase HDAC6. The series is described as follows: Inhibition of recombinant HDAC6 (unknown origin) using Boc-Lys(acetyl)-AMC as substrate preincubated for 15 mins followed by substrate addition and measured after 2 hrs by fluorescence based microplate reader analysis.
In another series the test system is Mus musculus. The experiment in a line: Inhibition of LPS-induced endotoxic shock in C57BL/6 mouse model serum assessed as decrease in IL-1beta level at 20 mg/kg, po measured after 12 hrs. The class given is functional, organism-based.
For a further series, the target named is Histone deacetylase 1 (Homo sapiens, UniProt Q13547). The experiment in a line: Binding affinity to recombinant HDAC1 (unknown origin) assessed as inhibition constant using Boc-Lys(acetyl)-AMC as substrate preincubated for 1 hr followed by substrate addition and measured after 2 hrs by fluorescence based microplate reader analysis.
Sequence of Histone deacetylase 1 (Q13547 whole entry): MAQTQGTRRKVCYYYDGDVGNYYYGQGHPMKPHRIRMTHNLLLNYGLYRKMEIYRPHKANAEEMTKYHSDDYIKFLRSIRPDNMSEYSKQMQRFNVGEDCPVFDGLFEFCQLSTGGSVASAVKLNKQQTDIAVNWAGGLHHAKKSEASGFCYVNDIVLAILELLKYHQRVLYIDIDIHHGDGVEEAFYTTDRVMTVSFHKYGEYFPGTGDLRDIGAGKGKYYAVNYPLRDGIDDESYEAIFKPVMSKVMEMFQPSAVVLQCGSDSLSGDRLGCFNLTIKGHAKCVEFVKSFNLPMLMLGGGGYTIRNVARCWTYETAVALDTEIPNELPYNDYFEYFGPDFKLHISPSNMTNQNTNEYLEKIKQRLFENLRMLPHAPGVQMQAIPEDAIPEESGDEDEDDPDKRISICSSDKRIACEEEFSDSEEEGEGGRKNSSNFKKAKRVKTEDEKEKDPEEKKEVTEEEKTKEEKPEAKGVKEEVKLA
Series [13] can be described thus: Brain concentration in CD-1 mouse at 20 mg/kg measured after 1 hrs by LC-MS/MS analysis. The series is classed as ADME, organism-based. The settings on record: read-out: Ct.
A short description of series [14]: Brain concentration in CD-1 mouse at 20 mg/kg measured after 4 hrs by LC-MS/MS analysis. The series is classed as ADME, organism-based. The conditions noted are these: read-out: Ct.
Series [15] has as its system J774.A1. The experiment in a line: Antiinflammatory activity against LPS primed mouse J774.A1 cells assessed suppression of LPS/ATP induced IL-beta release preincubated for 30 mins followed by ATP stimulation measured after 30 mins by ELISA. The series is classed as functional, cell-based. Background: An ELISA detects its analyte on a solid surface through an enzyme-linked reagent.

The target of series [16] is T1, Protein deacetylase HDAC6. The series is described as follows: Inhibition of recombinant HDAC6 (unknown origin) using Boc-Lys(acetyl)-AMC as substrate preincubated for 0 min followed by substrate addition and measured after 2 hrs by fluorescence based microplate reader analysis.
Series [17] addresses T2, Protein deacetylase HDAC6 (Homo sapiens). The experiment in a line: Inhibition of full length recombinant human HDAC6 in MV4-11 cells assessed as accumulation of acetylated alpha-tubulin at 0.1 to 1 uM measured upto 24 hrs by western blot analysis. The series is classed as cell-based. The conditions noted are these: dose 0.1-1 µM, DDE = dose-dependent effect.
Series [18] concerns the target T1, Protein deacetylase HDAC6. The series is described as follows: Inhibition of recombinant HDAC6 (unknown origin) using Boc-Lys(acetyl)-AMC as substrate preincubated for 1 hr followed by substrate addition and measured after 2 hrs by fluorescence based microplate reader analysis.
In another series the target is Histone deacetylase 4 (Homo sapiens, UniProt P56524). The experiment in a line: Inhibition of recombinant HDAC4 (unknown origin) using Boc-Lys (trifluoroacetyl) AMC as substrate preincubated for 1 hr followed by substrate addition and measured after 2 hrs by fluorescence based microplate reader analysis.
Sequence of Histone deacetylase 4 (P56524 whole entry): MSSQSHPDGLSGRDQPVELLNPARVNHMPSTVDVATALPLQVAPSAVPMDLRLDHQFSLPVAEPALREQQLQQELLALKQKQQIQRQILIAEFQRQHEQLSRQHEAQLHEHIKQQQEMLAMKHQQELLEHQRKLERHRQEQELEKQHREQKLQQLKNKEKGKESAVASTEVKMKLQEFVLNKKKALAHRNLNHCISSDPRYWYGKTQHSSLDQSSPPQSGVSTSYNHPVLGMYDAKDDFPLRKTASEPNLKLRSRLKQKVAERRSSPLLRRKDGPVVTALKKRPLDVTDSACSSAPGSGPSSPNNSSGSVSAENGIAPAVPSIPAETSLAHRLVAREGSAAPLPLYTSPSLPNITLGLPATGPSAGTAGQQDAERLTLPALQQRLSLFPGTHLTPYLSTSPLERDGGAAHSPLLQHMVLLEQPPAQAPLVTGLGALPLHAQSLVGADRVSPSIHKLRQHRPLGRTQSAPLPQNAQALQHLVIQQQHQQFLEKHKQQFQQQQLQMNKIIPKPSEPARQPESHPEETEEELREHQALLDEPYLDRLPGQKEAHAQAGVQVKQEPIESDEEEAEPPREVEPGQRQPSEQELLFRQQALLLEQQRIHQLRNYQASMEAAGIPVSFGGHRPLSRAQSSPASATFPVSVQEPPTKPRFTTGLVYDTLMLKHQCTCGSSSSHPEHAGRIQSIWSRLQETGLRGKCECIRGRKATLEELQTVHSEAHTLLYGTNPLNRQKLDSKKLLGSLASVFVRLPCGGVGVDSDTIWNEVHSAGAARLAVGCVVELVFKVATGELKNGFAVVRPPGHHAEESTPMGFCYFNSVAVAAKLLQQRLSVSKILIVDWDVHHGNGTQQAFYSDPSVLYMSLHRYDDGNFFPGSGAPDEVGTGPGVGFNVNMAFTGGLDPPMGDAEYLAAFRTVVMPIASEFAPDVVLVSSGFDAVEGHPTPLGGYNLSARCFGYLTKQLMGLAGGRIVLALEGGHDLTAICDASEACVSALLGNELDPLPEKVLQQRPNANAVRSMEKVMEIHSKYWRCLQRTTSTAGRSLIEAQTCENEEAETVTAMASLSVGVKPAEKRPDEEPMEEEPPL

In the case of `CCNNC(=O)c1ccc(CN2c3ccccc3C=Cc3ccncc32)cc1`, the Activity result is “Dde” in the series with J774.A1 [1] and “Non-Toxic” with L02. Besides, the area under the curve AUC(0-inf) in series [2] is 10300 ng·h/mL; in [3], 2760 ng·h/mL. In addition, the peak level in series [4] (Cmax) was 5570 ng/mL. The half-life in series [5] was 6.8 h; in series [7], 7.95 h. Moreover, the concentration at 0.5 h in [6] worked out at 7740 ng/mL. For the same compound, the IC50 was found to be 51 nM in series [8]; 31.7 nM in [10]; 257 nM in series [12]; 2610 nM in the series on J774.A1 [15]; 461 nM in series [16]; 19 nM in [18]. For the same compound, at Histone deacetylase 4, the IC50 is above 5000 nM. Besides, the Kp at 0.5 h in series [9] was found to be 1.45. Also, in series [11], the inhibition entry was “Active”. For the same compound, the result in the series with Mus musculus was Active. Besides, on Histone deacetylase 1, the Ki is 875 nM. Besides, the concentration at 1 h in series [13] is 7400 ng/mL. Besides, in series [14], the concentration at 4 h is 245 ng/mL. Moreover, in series [17], the inhibition entry is “Dde”.

Usually AUC(0-inf) stands for the area under the concentration-time curve extrapolated to infinity. The term Cmax denotes the peak of the concentration-time curve. In general, half-life refers to the time in which the quantity being followed falls by half. A lower half-life goes with fast loss. What is called IC50 is the concentration at which inhibition is half-maximal. Usually Ki stands for a dissociation constant, usually derived from enzyme kinetics or from competition with a known ligand.

The values above are taken from ChEMBL document CHEMBL5113527, “First-in-Class Hydrazide-Based HDAC6 Selective Inhibitor with Potent Oral Anti-Inflammatory Activity by Attenuating NLRP3 Inflammasome Activation” (J Med Chem, 2022).
